Laboratory results as given in paper PMC7921374, “In vitro antifungal activity of pelgipeptins against human pathogenic fungi and Candida albicans biofilms” (AIMS Microbiology, 2021).
≈ marks a conversion by molar mass, not a printed value. Where a SMILES comes first, the peptide text is derived from it. Bridges are numbered along the chain shown (N, C = ends). [ ]: non-standard residue; d: D form. The star is where a group is joined. X1 = CC[C@H](C)CCCCC(=O)*; Dab = NCC[C@H](N)C(=O)O

Assays:
Type in all cases: cell-based
[1] = test system: Candida albicans SC 5314 biofilms; assay: Inhibition of initial biofilm formation (XTT); details: antimicrobial added at same time as yeast inoculum (2 × 10^6 cells/mL), XTT reduction, A490, 80% decrease vs control biofilm, triplicate, at least twice
Method: (§1) The effects of the pelgipeptins on C. albicans biofilms were analyzed according to the protocol described by Pierce et al.. Briefly, 2 × 10^6 cells/mL of C. albicans SC 5314 were inoculated on 96-well polystyrene microplates. The inhibition of biofilm formation was also evaluated by adding antimicrobials (lipopeptides, fluconazole, or amphotericin B) at the same time as the yeast inoculum. Furthermore, the inhibition of early-phase biofilms was assessed after 4 hours of yeast growth by removing the planktonic cells and adding the antimicrobials (lipopeptides or amphotericin B). For the investigation of the effects of peptides on mature biofilms, the Candida cells were allowed to grow for 24 h when planktonic cells were removed, and the antimicrobials were added to the culture and incubated for another 24 h at 37 °C.
(§2) The biofilm viability was analyzed by the metabolic assay on the basis of the reduction of 2,3-bis-(2-methoxy-4-nitro-5-sulfophenyl)-2H-tetrazolium-5-carboxanilide (XTT) and absorbance reading at 490 nm. […] The sessile minimal inhibitory concentrations (SMICs) were also determined at 80% (SMIC80) and 50% (SIMIC50) decrease in absorbance at 490 nm in comparison with the control biofilms growing in the absence of the drug, as previously described.

[2] = test system: Candida albicans SC 5314 biofilms; assay: Inhibition of mature biofilms (XTT); details: biofilm grown 24 h, planktonic cells removed, antimicrobial for another 24 h at 37 °C, triplicate, at least twice
Method: as §1, §2

[3] = test system: Candida albicans SC 5314 biofilms; assay: Inhibition of early-phase biofilm (XTT); details: antimicrobial added after 4 hours of yeast growth, planktonic cells removed, A490, 80% decrease, triplicate, at least twice
Method: as §1, §2

[4] = test system: Paracoccidioides brasiliensis Pb18; assay: microbe, parasite or virus in culture
Method: (§3) The isolated pelgipeptin isoforms were tested against the reference clinical strains of Candida albicans SC 5314 (ATCC MYA-2876), Candida glabrata ATCC 90030, Cryptococcus neoformans H99 (ATCC 208821), and Paracoccidioides brasiliensis PB18, a Brazilian clinical isolate. All the isolates were obtained from the mycology collection of the University of Brasilia (Department of Cell Biology). Before each experiment, both Candida spp. strains were grown in Sabouraud's dextrose broth (Himedia) overnight at 30 °C/200 rpm. In addition, the C. neoformans cells were grown in the same conditions for 24 h. P. brasiliensis strains were also grown in GPY medium (2% glucose w/v, 1% peptone w/v, 0.5% yeast extract w/v, and 2% agar w/v), at 37 °C, for 5 days. The fungal cells were collected by centrifugation, washed thrice in phosphate buffered saline (PBS) (NaCl, 137 mM; KCl, 2.7 mM; Na2HPO4, 10 mM; KH2PO4, 2 mM), and inoculated in RPMI 1640 medium (Thermo-Fisher Scientific) supplemented with L-glutamine and buffered to pH 7.0 with 165 mM of 3-(N-morpholino) propanesulfonic acid.
(§4) The in vitro antifungal assays were performed according to the broth microdilution susceptibility test from the Clinical and Laboratory Standards Institute M27-A4 guidelines with modifications. Briefly, the twofold serial dilutions of each pelgipeptin were prepared in 96-well polystyrene microplates to a final volume of 50 µL. Fluconazole, an antifungal employed in the treatment of mycosis caused by Candida spp, Cryptococcus spp, and Paracoccidioides spp, was used as a control (Sigma-Aldrich). We also utilized polymyxin B (Sigma-Aldrich), another bacterial lipopeptide, in our assays due to some works that show its antifungal activity,[28]. The final concentrations of each lipopeptide and control ranged from 1 to 128 µg/mL, and the negative controls without peptide were used to assess fungal growth. Subsequently, 50 µL of the inoculum adjusted on RPMI-1640 medium was added to each well to a final concentration of 2 × 10^3 cells/mL for Candida spp. and 10^4 cells/mL for C. neoformans or P. brasiliensis strains. The microplates were incubated at 37 °C for 24, 48, or 72 h. In addition, the strains of C. neoformans were incubated with shaking at 200 rpm.
(§5) The MICs of the pelgipeptins against P. brasiliensis were determined using the microplate AlamarBlue Cell Viability Assay. This assay uses a resazurin-based solution to indicate cell viability, which was evaluated by fluorometric readings in a fluorescence plate reader with excitation at 550 nm and emission at 585 nm (SpectraMax® M plate reader). The experiments were performed in triplicates at least thrice on separate dates.

[5] = test system: Candida glabrata ATCC 90030; assay: microbe, parasite or virus in culture; details: broth microdilution CLSI M27-A4 modified, RPMI 1640 pH 7.0, 2 × 10^3 cells/mL, 37 °C, complete inhibition of visible growth, triplicates, at least thrice
Method: as §3, §4, §5

[6] = test system: Cryptococcus neoformans H99; assay: microbe, parasite or virus in culture; details: broth microdilution CLSI M27-A4 modified, RPMI 1640 pH 7.0, 10^4 cells/mL, 37 °C, shaking 200 rpm, lowest concentration completely inhibiting visible growth, triplicates, at least thrice
Method: as §3, §4, §5

[7] = test system: Candida albicans SC5314; assay: microbe, parasite or virus in culture; details: broth microdilution CLSI M27-A4 modified, RPMI 1640 pH 7.0, 2 × 10^3 cells/mL, 37 °C, complete inhibition of visible growth, triplicates, at least thrice
Method: as §3, §4, §5

Structure (SMILES): C[C@@H]1[C@H](O)[C@@H](C)/C=C/C=C/C=C/C=C/C=C/C=C/C=C/[C@H](O[C@@H]2O[C@H](C)[C@@H](O)[C@H](N)[C@@H]2O)C[C@@H]2O[C@](O)(C[C@@H](O)C[C@@H](O)[C@H](O)CC[C@@H](O)C[C@@H](O)CC(=O)O[C@H]1C)C[C@H](O)[C@H]2C(=O)O [Amphotericin B]
- Inhibition of initial biofilm formation SMIC80 [1]: <0.5 µg/mL
- Inhibition of initial biofilm formation SMIC80 ([1]; listed as amphotericin B): lower than 0.5 µg/mL
- Inhibition of mature biofilms SMIC50 ([2]; A490, 50% decrease): 0.5 µg/mL
- Inhibition of mature biofilms SMIC80 ([2]; A490, 80% decrease): 4 µg/mL
- Inhibition of early-phase biofilm SMIC80 [3]: <0.5 µg/mL
- Inhibition of early-phase biofilm SMIC80 ([3]; listed as amphotericin B): lower than 0.5 µg/mL

Structure (SMILES): OC(Cn1cncn1)(Cn1cncn1)c1ccc(F)cc1F [Fluconazole]
- MIC ([4]; Paracoccidioides brasiliensis, PB18, pH 7, read-out: MIC Paracoccidioides brasiliensis Pb18): 2 µg/mL (≈ 6.53 µM)
- MIC ([5]; Nakaseomyces glabratus, ATCC90030): 32 µg/mL (≈ 104 µM)
- MIC ([6]; Cryptococcus neoformans, H99): 2 µg/mL (≈ 6.53 µM)
- MIC ([7]; Candida albicans, SC5314): 16 µg/mL (≈ 52.2 µM)

Structure (SMILES): CC[C@H](C)CCCCC(=O)N[C@@H](CCN)C(=O)N[C@H](C(=O)N[C@@H](CCN)C(=O)N[C@H]1CCNC(=O)[C@H]([C@@H](C)O)NC(=O)[C@H](CCN)NC(=O)[C@H](CCN)NC(=O)[C@H](CC(C)C)NC(=O)[C@@H](Cc2ccccc2)NC(=O)[C@H](CCN)NC1=O)[C@@H](C)O [Polymyxin B, polymyxin B] (X1-[Dab]T[Dab][Dab][Dab][dF]L[Dab][Dab]T; lactam 4-C (inferred); N-terminus assumed)
- MIC Paracoccidioides brasiliensis Pb18 ([4]; broth microdilution, RPMI 1640 pH 7.0 (MOPS), 10^4 cells/mL, 37 °C, AlamarBlue fluorescence (ex 550/em 585 nm), triplicates, at least thrice): > 1024 µg/mL
- MIC Candida glabrata 90030 [5]: 512 µg/mL (≈ 425 µM)
- MIC Cryptococcus neoformans H99 [6]: 8 µg/mL (≈ 6.65 µM)
- MIC Candida albicans SC5314 [7]: 256 µg/mL (≈ 213 µM)
